From article PMC11079024, “Identification of a family of species-selective complex I inhibitors as potential anthelmintics” (Nature Communications, 2024)
“And” between values parts separate entries of the source, which are not always exact repeats. Identical values can stand only once. Like-named read-outs stand apart in the source and are kept apart here.

Columns and labels:
L1 wild-type C. elegans [1] = assay: 15-hour motility assay with drug alone (no KCN); assay type: cell-based, Caenorhabditis elegans; conditions: without KCN, 15-hour; for Value relative to DMSO control, drug alone (without KCN), Mean: mean of replicates; for Value relative to DMSO control, drug alone (without KCN): single replicates
L1 wild-type C. elegans [2] = conditions: drug + KCN, 15-hour; for KCN survival assay value relative to DMSO control, Mean: mean of replicates; for KCN survival assay value relative to DMSO control: single replicates
L1 wild-type C. elegans [3] = assay: whole plant or invertebrate; conditions: Caenorhabditis elegans, 15 h, read-out: C. elegans KCN survival assay LC50

SMILES: Cc1cc(C(C#N)c2ccc(Cl)cc2)c(Cl)cc1NC(=O)c1cc(I)cc(I)c1O (stereo not drawn) [Closantel]
- Value relative to DMSO control, drug alone (without KCN), Mean (L1 wild-type C. elegans [1]; 0.025 µM): 1.096
- Value relative to DMSO control, drug alone (without KCN) (L1 wild-type C. elegans [1]; 0.025 µM): 1.270 and 1.000 and 1.019
- Value relative to DMSO control, drug alone (without KCN), Mean (L1 wild-type C. elegans [1]; 0.05 µM): 0.995
- Value relative to DMSO control, drug alone (without KCN) (L1 wild-type C. elegans [1]; 0.05 µM): 1.190 and 0.812 and 0.983
- Value relative to DMSO control, drug alone (without KCN), Mean (L1 wild-type C. elegans [1]; 0.1 µM): 0.999
- Value relative to DMSO control, drug alone (without KCN) (L1 wild-type C. elegans [1]; 0.1 µM): 1.131 and 0.827 and 1.040
- Value relative to DMSO control, drug alone (without KCN), Mean (L1 wild-type C. elegans [1]; 0.2 µM): 1.003
- Value relative to DMSO control, drug alone (without KCN) (L1 wild-type C. elegans [1]; 0.2 µM): 1.030 and 1.024 and 0.957
- Value relative to DMSO control, drug alone (without KCN), Mean (L1 wild-type C. elegans [1]; 0.4 µM): 0.958
- Value relative to DMSO control, drug alone (without KCN) (L1 wild-type C. elegans [1]; 0.4 µM): 1.006 and 0.910 and 0.957
- Value relative to DMSO control, drug alone (without KCN), Mean (L1 wild-type C. elegans [1]; 0.8 µM): 1.081
- Value relative to DMSO control, drug alone (without KCN) (L1 wild-type C. elegans [1]; 0.8 µM): 1.194 and 1.047 and 1.003
- Value relative to DMSO control, drug alone (without KCN), Mean (L1 wild-type C. elegans [1]; 3.1 µM): 0.969
- Value relative to DMSO control, drug alone (without KCN) (L1 wild-type C. elegans [1]; 3.1 µM): 1.240 and 0.805 and 0.863
- Value relative to DMSO control, drug alone (without KCN), Mean (L1 wild-type C. elegans [1]; 6.3 µM): 1.048
- Value relative to DMSO control, drug alone (without KCN) (L1 wild-type C. elegans [1]; 6.3 µM): 1.218 and 0.919 and 1.007
- Value relative to DMSO control, drug alone (without KCN), Mean (L1 wild-type C. elegans [1]; 12.5 µM): 1.059
- Value relative to DMSO control, drug alone (without KCN) (L1 wild-type C. elegans [1]; 12.5 µM): 1.241 and 0.872 and 1.065
- Value relative to DMSO control, drug alone (without KCN), Mean (L1 wild-type C. elegans [1]; 25 µM): 0.703
- Value relative to DMSO control, drug alone (without KCN) (L1 wild-type C. elegans [1]; 25 µM): 0.678 and 0.775 and 0.655
- KCN survival assay value relative to DMSO control, Mean (L1 wild-type C. elegans [2]; 0.025 µM): 0.976
- KCN survival assay value relative to DMSO control (L1 wild-type C. elegans [2]; 0.025 µM): 0.959 and 0.928 and 1.042
- KCN survival assay value relative to DMSO control, Mean (L1 wild-type C. elegans [2]; 0.05 µM): 0.987
- KCN survival assay value relative to DMSO control (L1 wild-type C. elegans [2]; 0.05 µM): 1.068 and 0.937 and 0.955
- KCN survival assay value relative to DMSO control, Mean (L1 wild-type C. elegans [2]; 0.1 µM): 0.937
- KCN survival assay value relative to DMSO control (L1 wild-type C. elegans [2]; 0.1 µM): 0.967 and 0.903 and 0.941
- KCN survival assay value relative to DMSO control, Mean (L1 wild-type C. elegans [2]; 0.2 µM): 0.886
- KCN survival assay value relative to DMSO control (L1 wild-type C. elegans [2]; 0.2 µM): 1.054 and 0.849 and 0.755
- KCN survival assay value relative to DMSO control, Mean (L1 wild-type C. elegans [2]; 0.4 µM): 0.363
- KCN survival assay value relative to DMSO control (L1 wild-type C. elegans [2]; 0.4 µM): 0.480 and 0.444 and 0.164
- KCN survival assay value relative to DMSO control, Mean (L1 wild-type C. elegans [2]; 0.8 µM): 0.018
- KCN survival assay value relative to DMSO control, Mean (L1 wild-type C. elegans [2]; 3.1 µM): 0.000
- KCN survival assay value relative to DMSO control, Mean (L1 wild-type C. elegans [2]; 6.3 µM): 0.000
- KCN survival assay value relative to DMSO control (L1 wild-type C. elegans [2]; 6.3 µM): 0.000
- KCN survival assay value relative to DMSO control, Mean (L1 wild-type C. elegans [2]; 12.5 µM): 0.0065
- KCN survival assay value relative to DMSO control, Mean (L1 wild-type C. elegans [2]; 25 µM): 0.0037
- LC50 (L1 wild-type C. elegans [3]): 332 nM

SMILES: O=C(Nc1cc(Cl)cc(Cl)c1O)c1c(O)c(Cl)cc(Cl)c1Cl [Oxyclozanide]
- Value relative to DMSO control, drug alone (without KCN), Mean (L1 wild-type C. elegans [1]; 0.025 µM): 0.970
- Value relative to DMSO control, drug alone (without KCN) (L1 wild-type C. elegans [1]; 0.025 µM): 1.075 and 0.779 and 1.056
- Value relative to DMSO control, drug alone (without KCN), Mean (L1 wild-type C. elegans [1]; 0.05 µM): 1.040
- Value relative to DMSO control, drug alone (without KCN) (L1 wild-type C. elegans [1]; 0.05 µM): 0.978 and 1.142 and 1.000
- Value relative to DMSO control, drug alone (without KCN), Mean (L1 wild-type C. elegans [1]; 0.1 µM): 1.014
- Value relative to DMSO control, drug alone (without KCN) (L1 wild-type C. elegans [1]; 0.1 µM): 1.026 and 1.091 and 0.926
- Value relative to DMSO control, drug alone (without KCN), Mean (L1 wild-type C. elegans [1]; 0.2 µM): 0.862
- Value relative to DMSO control, drug alone (without KCN) (L1 wild-type C. elegans [1]; 0.2 µM): 0.850 and 0.960 and 0.775
- Value relative to DMSO control, drug alone (without KCN), Mean (L1 wild-type C. elegans [1]; 0.4 µM): 0.811
- Value relative to DMSO control, drug alone (without KCN) (L1 wild-type C. elegans [1]; 0.4 µM): 0.730 and 0.844 and 0.861
- Value relative to DMSO control, drug alone (without KCN), Mean (L1 wild-type C. elegans [1]; 0.8 µM): 0.863
- Value relative to DMSO control, drug alone (without KCN) (L1 wild-type C. elegans [1]; 0.8 µM): 0.803 and 1.008 and 0.777
- Value relative to DMSO control, drug alone (without KCN), Mean (L1 wild-type C. elegans [1]; 3.1 µM): 0.927
- Value relative to DMSO control, drug alone (without KCN) (L1 wild-type C. elegans [1]; 3.1 µM): 0.899 and 1.068 and 0.814
- Value relative to DMSO control, drug alone (without KCN), Mean (L1 wild-type C. elegans [1]; 6.3 µM): 0.856
- Value relative to DMSO control, drug alone (without KCN) (L1 wild-type C. elegans [1]; 6.3 µM): 0.946 and 0.940 and 0.683
- Value relative to DMSO control, drug alone (without KCN), Mean (L1 wild-type C. elegans [1]; 12.5 µM): 0.986
- Value relative to DMSO control, drug alone (without KCN) (L1 wild-type C. elegans [1]; 12.5 µM): 0.842 and 1.234 and 0.881
- Value relative to DMSO control, drug alone (without KCN), Mean (L1 wild-type C. elegans [1]; 25 µM): 0.843
- Value relative to DMSO control, drug alone (without KCN) (L1 wild-type C. elegans [1]; 25 µM): 0.680 and 1.053 and 0.797
- KCN survival assay value relative to DMSO control, Mean (L1 wild-type C. elegans [2]; 0.025 µM): 1.036
- KCN survival assay value relative to DMSO control (L1 wild-type C. elegans [2]; 0.025 µM): 1.103 and 1.007 and 0.999
- KCN survival assay value relative to DMSO control, Mean (L1 wild-type C. elegans [2]; 0.05 µM): 1.033
- KCN survival assay value relative to DMSO control (L1 wild-type C. elegans [2]; 0.05 µM): 1.103 and 1.025 and 0.972
- KCN survival assay value relative to DMSO control, Mean (L1 wild-type C. elegans [2]; 0.1 µM): 0.765
- KCN survival assay value relative to DMSO control (L1 wild-type C. elegans [2]; 0.1 µM): 0.944 and 0.659 and 0.693
- KCN survival assay value relative to DMSO control, Mean (L1 wild-type C. elegans [2]; 0.2 µM): 0.371
- KCN survival assay value relative to DMSO control (L1 wild-type C. elegans [2]; 0.2 µM): 0.478 and 0.398 and 0.238
- KCN survival assay value relative to DMSO control, Mean (L1 wild-type C. elegans [2]; 0.4 µM): 0.077
- KCN survival assay value relative to DMSO control, Mean (L1 wild-type C. elegans [2]; 0.8 µM): 0.012
- KCN survival assay value relative to DMSO control, Mean (L1 wild-type C. elegans [2]; 3.1 µM): 0.000
- KCN survival assay value relative to DMSO control (L1 wild-type C. elegans [2]; 3.1 µM): 0.000
- KCN survival assay value relative to DMSO control, Mean (L1 wild-type C. elegans [2]; 6.3 µM): 0.000
- KCN survival assay value relative to DMSO control (L1 wild-type C. elegans [2]; 6.3 µM): 0.000
- KCN survival assay value relative to DMSO control, Mean (L1 wild-type C. elegans [2]; 12.5 µM): 0.0006
- KCN survival assay value relative to DMSO control, Mean (L1 wild-type C. elegans [2]; 25 µM): 0.000
- KCN survival assay value relative to DMSO control (L1 wild-type C. elegans [2]; 25 µM): 0.000
- LC50 (L1 wild-type C. elegans [3]): 158 nM
